From patent publication US8952024B2, “Herbicidal pyrimidone derivatives” (E I du Pont de Nemours and Company, priority 2009, dated 2015)

Assays:
Type in all cases: in vivo
[1] = test system: windgrass (Apera spica-venti); assay: Test B postemergence plant response; conditions: for Plant response rating, Windgrass: Postemergence
Method in brief: (§1)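 Visual ratings from 0 (no effect) to 100 (complete control), made against controls 13–15 days after treatment, kept in a greenhouse. Compounds were applied postemergence to potted plants at the 1- to 4-leaf stage (2–18 cm).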

[2] = test system: chickweed (Stellaria media); assay: Test B postemergence plant response; conditions: for Plant response rating, Chickweed: Postemergence
Method in brief: as §1

[3] = test system: canarygrass (Phalaris minor); assay: Test B postemergence plant response; conditions: for Plant response rating, Canarygrass: Postemergence
Method in brief: as §1

[4] = test system: downy bromegrass (Bromus tectorum); assay: Test B pre-/postemergence plant response; conditions: for Plant response rating, Bromegrass, Downy: Postemergence
Method in brief: (§2)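 Visual ratings on a 0–100 scale (100 = complete control) were made versus untreated controls 13–15 days after treatment in a greenhouse. Compounds in surfactant-containing non-phytotoxic solvent were applied preemergence to seeds in loam–sand blend or postemergence to 1- to 4-leaf plants (2–18 cm).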

[5] = test system: johnsongrass (Sorghum halepense); assay: Test B pre-/postemergence plant response; conditions: for Plant response rating, Johnsongrass: Postemergence
Method in brief: as §2

[6] = test system: cocklebur (Xanthium strumarium); assay: Test B pre-/postemergence plant response; conditions: for Plant response rating, Cocklebur: Postemergence
Method in brief: as §2

[7] = test system: wheat (Triticum aestivum); assay: Test B pre-/postemergence plant response; conditions: for Plant response rating, Wheat: Postemergence
Method in brief: as §2

[8] = test system: kochia (Kochia scoparia); assay: Test B pre-/postemergence plant response; conditions: for Plant response rating, Kochia: Postemergence
Method in brief: as §2

[9] = test system: blackgrass (Alopecurus myosuroides); assay: Test B pre-/postemergence plant response; conditions: for Plant response rating, Blackgrass: Postemergence
Method in brief: as §2

[10] = test system: ragweed (common ragweed, Ambrosia elatior); assay: Test B pre-/postemergence plant response; conditions: for Plant response rating, Ragweed: Postemergence
Method in brief: as §2

[11] = test system: yellow nutsedge (Cyperus esculentus); assay: Test B pre-/postemergence plant response; conditions: for Plant response rating, Nutsedge, Yellow: Postemergence
Method in brief: as §2

[12] = test system: wild oat (Avena fatua); assay: Test B pre-/postemergence plant response; conditions: for Plant response rating, Oat, Wild: Postemergence
Method in brief: as §2

[13] = test system: green foxtail (Setaria viridis); assay: Test B pre-/postemergence plant response; conditions: for Plant response rating, Foxtail, Green: Postemergence
Method in brief: as §2

[14] = test system: velvetleaf (Abutilon theophrasti); assay: Test B pre-/postemergence plant response; conditions: for Plant response rating, Velvetleaf: Postemergence
Method in brief: as §2

[15] = test system: giant foxtail (Setaria faberii); assay: Test B pre-/postemergence plant response; conditions: for Plant response rating, Foxtail, Giant: Postemergence
Method in brief: as §2

[16] = test system: morningglory (Ipomoea coccinea); assay: Test B pre-/postemergence plant response; conditions: for Plant response rating, Morningglory: Postemergence
Method in brief: as §2

[17] = test system: bermudagrass (Cynodon dactylon); assay: Test B pre-/postemergence plant response; conditions: for Plant response rating, Bermudagrass: Postemergence
Method in brief: as §2

[18] = test system: soybean (Glycine max); assay: Test B pre-/postemergence plant response; conditions: for Plant response rating, Soybean: Postemergence
Method in brief: as §2

[19] = 62 g ai/ha, postemergence, 0 is no effect, 100 is complete control, 13 to 15 days
[20] = 31 g ai/ha, 0 to 100 scale (0 no effect, 100 complete control)
[21] = 125 g ai/ha, scale 0 to 100 (0 no effect, 100 complete control)
[22] = 250 g ai/ha, scale 0 to 100 (0 no effect, 100 complete control), 13 to 15 days

CCCn1c(-c2cccc(F)c2)ncc(C(=O)C2=C(O)CCCC2=O)c1=O [Compound 127]
100: Plant response rating, Cocklebur [6, 22] | Plant response rating, Kochia [8, 21] | Plant response rating, Kochia [8, 22] | Plant response rating, Velvetleaf [14, 21] | Plant response rating, Velvetleaf [14, 22]
10: Canarygrass plant response rating (0 to 100 scale) [3, 19] | Bromegrass, Downy plant response rating (0 to 100 scale) [4, 19] | Wheat plant response rating (0 to 100 scale) [7, 19] | Oat, Wild plant response rating (0 to 100 scale) [12, 19]
70: Plant response rating, Windgrass [1, 22] | Johnsongrass plant response rating (0 to 100 scale) [5, 19] | Plant response rating, Ragweed [10, 20] | Nutsedge, Yellow plant response rating (0 to 100 scale) [11, 19]
85: Ragweed plant response rating (0 to 100 scale) [10, 19] | Foxtail, Green plant response rating (0 to 100 scale) [13, 19] | Foxtail, Giant plant response rating (0 to 100 scale) [15, 19] | Plant response rating, Foxtail, Giant [15, 21]
90: Plant response rating, Foxtail, Green [13, 21] | Plant response rating, Velvetleaf [14, 20] | Plant response rating, Foxtail, Giant [15, 22] | Plant response rating, Morningglory [16, 21]
60: Plant response rating, Canarygrass [3, 22] | Plant response rating, Oat, Wild [12, 22]
40: Plant response rating, Bromegrass, Downy [4, 22] | Plant response rating, Wheat [7, 22] | Plant response rating, Blackgrass [9, 22]
45: Plant response rating, Kochia [8, 20]
98: Plant response rating, Chickweed [2, 21] | Plant response rating, Chickweed [2, 22] | Kochia plant response rating (0 to 100 scale) [8, 19] | Plant response rating, Ragweed [10, 21] | Plant response rating, Ragweed [10, 22] | Plant response rating, Morningglory [16, 22] | Plant response rating, Bermudagrass [17, 21] | Plant response rating, Bermudagrass [17, 22] | Soybean plant response rating (0 to 100 scale) [18, 19] | Plant response rating, Soybean [18, 21] | Plant response rating, Soybean [18, 22]
5: Plant response rating, Canarygrass [3, 20] | Plant response rating, Bromegrass, Downy [4, 20] | Plant response rating, Wheat [7, 20] | Plant response rating, Blackgrass [9, 20] | Plant response rating, Oat, Wild [12, 20]
25: Plant response rating, Windgrass [1, 20] | Plant response rating, Wheat [7, 21] | Plant response rating, Blackgrass [9, 21] | Plant response rating, Oat, Wild [12, 21]
75: Chickweed plant response rating (0 to 100 scale) [2, 19] | Plant response rating, Cocklebur [6, 20] | Plant response rating, Nutsedge, Yellow [11, 21] | Plant response rating, Foxtail, Green [13, 20]
80: Plant response rating, Johnsongrass [5, 21] | Plant response rating, Nutsedge, Yellow [11, 22] | Plant response rating, Foxtail, Giant [15, 20] | Morningglory plant response rating (0 to 100 scale) [16, 19]
20: Plant response rating, Bromegrass, Downy [4, 21] | Blackgrass plant response rating (0 to 100 scale) [9, 19]
35: Plant response rating, Canarygrass [3, 21]
50: Windgrass plant response rating (0 to 100 scale) [1, 19]
95: Plant response rating, Johnsongrass [5, 22] | Cocklebur plant response rating (0 to 100 scale) [6, 19] | Plant response rating, Cocklebur [6, 21] | Plant response rating, Foxtail, Green [13, 22] | Velvetleaf plant response rating (0 to 100 scale) [14, 19] | Bermudagrass plant response rating (0 to 100 scale) [17, 19] | Plant response rating, Bermudagrass [17, 20] | Plant response rating, Soybean [18, 20]
65: Plant response rating, Chickweed [2, 20] | Plant response rating, Johnsongrass [5, 20] | Plant response rating, Nutsedge, Yellow [11, 20] | Plant response rating, Morningglory [16, 20]
55: Plant response rating, Windgrass [1, 21]
